Measured values taken from paper PMC12648368 (British Journal of Clinical Pharmacology, 2025).
“Also recorded” adds a separate entry of the source. Like-named read-outs stand apart in the source and are kept apart here.

Assays:
[1] = set-up: method as in earlier work; settings: fixed in the previously published model; cited from earlier work
clinical = settings: human, in vivo
[2] = Effect-compartment model of intracellular PBMC concentrations, DERIVE study; format: in vivo, human; settings: for Equilibration half‐life, t 1/2 (plasma to PBMC) / half-life / Kp: PBMC effect compartment, estimate (95% CI); for half-life / Kp: human, oral; for half-life: PBMC, read-out: Equilibration half‐life, t 1/2 (plasma to PBMC) (converted); for Kp: read-out: Pseudo‐partition coefficient, PPC (ratio of drug in PBMC to plasma)
Procedure: Pharmacokinetic sampling was conducted over four visits. […] The rifampicin dose was increased to 1200 mg once daily (QD) for 1 week. […] Dolutegravir was maintained for an additional 2 weeks. […] Blood samples were centrifuged and stored at -80 °C prior to shipment and assay at the University of Cape Town, where drug concentrations were measured using high-performance liquid chromatography with tandem mass spectrometry (HPLC MS/MS). […] Atazanavir and ritonavir pharmacokinetic models were separately developed using […] data. We tested one- and two-compartment disposition models with linear elimination, and delayed absorption modelled by a lag time or series of transit compartments. PBMC concentrations were modelled using a hypothetical effect compartment connected to the central compartment of the plasma model. An equilibration half-life (t1/2) and a pseudopartition coefficient (PPC) were used to parameterize the rate of drug entry into the PBMC compartment and its accumulation ratio between the PBMC and plasma, respectively (Figure S1).

[3] = in vivo; cited from earlier work
[4] = Population pharmacokinetic model of plasma atazanavir and ritonavir concentrations, DERIVE study (ATV/r with or without rifampicin); settings: for Vd / bioavailability / clearance: human, plasma, oral; for Effect of increasing rifampicin dose on clearance, bioavailability / pharmacokinetics: rifampicin 1200 mg QD vs 600 mg QD, ATV/r BID; for Fold‐change in CL for ATV/r BID + RIF: ATV/r 300/100 mg BID with rifampicin; for Fold‐change in CL for ATV/r QD + RIF: rifampicin 600 mg QD added to ATV/r
[5] = Final atazanavir model applied to atazanavir-only data (without ritonavir) of the ACTG A5231 study
Procedure: Atazanavir was administered with or without rifampicin in three periods: 300 mg BID for 8 days (period 1), 300 mg BID with rifampicin 600 mg QD for 11 days (period 2) and 400 mg BID with rifampicin 600 mg QD for 8 days (period 3).[30] Pharmacokinetic sampling was conducted at the end of each period, with blood collected 15 min predose and at 1‐, 2‐, 3‐, 4‐, 5‐, 6‐, 8‐, 10‐, 12‐, and 24‐h postdose. Plasma samples were analysed at the University of Alabama using HPLC with UV detection (LLOQ 0.025 mg/L).[30]
The final atazanavir model, developed with DERIVE data, was applied to the A5231 dataset. We made the following adjustment to our model to account for the differences between the two studies.
All fixed parameters are estimates from DERIVE study population.

HIV‐1 = settings: against HIV‐1; cited from earlier work
plasma proteins = settings: cited from earlier work
[6] = Inter compartmental clearance, typical participant 67 kg, fat‐free mass 42 kg, estimate (95% CI)
[7] = typical participant 67 kg, fat‐free mass 42 kg, estimate (95% CI)
[8] = estimate (95% CI), listed as atazanavir

CO[C@H]1/C=C/O[C@@]2(C)Oc3c(C)c(O)c4c(O)c(c(/C=N/N5CCN(C)CC5)c(O)c4c3C2=O)NC(=O)/C(C)=C\C=C\[C@H](C)[C@H](O)[C@@H](C)[C@@H](O)[C@@H](C)[C@H](OC(C)=O)[C@@H]1C [rifampicin]
BOV in MTT (estimate (95% CI)): 46.8 (40.0 – 56.8) % CV | BOV in ka (estimate (95% CI)): 104 (85.3 – 136) % CV | Between occasion variability (BOV) in F (estimate (95% CI)): 22.0 (17.9 – 26.3) % CV | Between subject variability in clearance (estimate (95% CI)): 27.7 (22.1 – 35.2) % CV | Mean absorption transit time, MTT (estimate (95% CI)): 0.502 (0.447 – 0.558) h | Transit compartments, NN (estimate (95% CI)): 20.3 (15.8 – 25.9) n | Bioavailability, F (human, in vivo): 1 (fixed) fraction | Unbound fraction of rifampicin, fu [1]: 0.2 (fixed) fraction | Km (clinical): 4.9 µg/mL | Vd (clinical): 44.7 L | clearance (clinical): 550 mL/min

CC(C)c1nc(CN(C)C(=O)N[C@H](C(=O)N[C@@H](Cc2ccccc2)C[C@H](O)[C@H](Cc2ccccc2)NC(=O)OCc2cncs2)C(C)C)cs1 [Ritonavir, ritonavir]
Equilibration half‐life, t 1/2 (plasma to PBMC) [2]: 1.40 (1.38‐1.63) h | half-life [2]: ~1 h | Kp [2]: 1.68 | Time to steady‐state concentrations [3]: about 2 weeks | Bioavailability decreased to, with rifampicin ([4]; ATV/r QD + rifampicin, relative to ATV/r without rifampicin): 31% | BOV in F ([4]; estimate (95% CI)): 55.5 (48.1‐63.8) % CV | BOV in MTT ([4]; estimate (95% CI)): 43.6 (37.7‐51.6) % CV | Between occasion variability (BOV) in k a ([4]; estimate (95% CI)): 82.3 (67.3‐99.1) % CV | Between subject variability in clearance ([4]; estimate (95% CI)): 16.4 (12.3‐21.8) % CV | Change in F for ATV/r BID + RIF ([4]; estimate (95% CI)): −33.3 (−46.6 −10.9) % | Change in F for ATV/r QD + RIF ([4]; estimate (95% CI)): −68.8 (−75.2 −58.5) % | Mean absorption transit time, MTT ([4]; estimate (95% CI)): 0.483 (0.428‐0.545) h | Transit compartments, NN ([4]; estimate (95% CI)): 12.3 (6.64‐17.7) n | Vd [4]: 55.4 L | bioavailability [4]: 100% | clearance ([4]; Clearance, CL, ATV/r 300/100 mg QD without rifampicin, typical participant 67 kg, fat‐free mass 42 kg, typical estimate (95% CI)): 161 mL/min | clearance [4, 6]: 26 mL/min | Effect of increasing rifampicin dose on clearance, bioavailability / pharmacokinetics [4]: no further effect | Volume of distribution (peripheral compartment) [4, 7]: 70.1 (39.7‐125) L

COC(=O)N[C@H](C(=O)N[C@@H](Cc1ccccc1)[C@@H](O)CN(Cc1ccc(-c2ccccn2)cc1)NC(=O)[C@@H](NC(=O)OC)C(C)(C)C)C(C)(C)C [Atazanavir, atazanavir]
Equilibration half‐life, t 1/2 (plasma to PBMC) [2]: 0.963 (0.546‐1.51) h | Effect of rifampicin on PBMC equilibration t 1/2 and PPC (intracellular accumulation) ([2]; addition of rifampicin to the regimen): did not affect the ratio of atazanavir concentration between PBMCs and plasma; also recorded: neither of which were affected; also recorded: does not affect the intracellular accumulation of atazanavir | half-life [2]: ~1 h | Kp [2]: 0.653 | Fold-change in CL due to absence of ritonavir ([5]; A5231 all PK visits vs ATV/r without rifampicin (DERIVE visit 1), estimate (95% CI)): 2.13 (1.88 – 2.34) -fold | BOV in F ([5]; human, in vivo): 58.3 (46.4 – 73.5) % CV | BOV in MTT ([5]; human, in vivo): 48.1 (36.9 – 63.4) % CV | Between occasion variability (BOV) in k a ([5]; human, in vivo): 101 (fixed) % CV | Between subject variability in clearance ([5]; human, in vivo): 18.8 (13.7 – 24.4) % CV | Change in F with rifampicin ([5]; human, in vivo): -55.3 (-64.0 – -46.2) % | Change in ka with rifampicin ([5]; human, in vivo): -70.8 (fixed) % | Clearance, CL ([5]; human, in vivo): 7.55 (fixed) L/h | MTT longer in A5231 compared to DERIVE ([5]; human, in vivo): 2.5 ‐fold | Mean absorption transit time, MTT ([5]; human, in vivo): 1.38 (1.15 – 1.61) h | Reduction in bioavailability when rifampicin was coadministered ([5]; human, in vivo): 55% | Transit compartments, NN ([5]; human, in vivo): 10 (fixed) n | Vd ([5]; human, in vivo): 77.3 L | Volume of distribution (peripheral compartment) ([5]; human, in vivo): 48.9 (fixed) L | bioavailability ([5]; human, in vivo): 100% | clearance ([5]; human, in vivo): 58.5 mL/min | Protein‐adjusted in vitro 90% inhibitory concentration (PA‐IC90) (HIV‐1): 0.014 µg/mL | Bound to plasma proteins (plasma proteins): about 86% | Fold‐change in CL for ATV/r BID + RIF ([4]; estimate (95% CI)): 2.03 (1.82‐2.25) ‐fold | Fold‐change in CL for ATV/r BID + RIF [4, 8]: 2 ‐fold | Clearance, CL ([4]; ATV/r 300/100 mg QD without rifampicin, typical participant 67 kg, fat‐free mass 42 kg, typical estimate (95% CI)): 7.57 (6.42‐9.06) L/h | Effect of doubling ATV/r dosing frequency on bioavailability ([4]; ATV/r BID with standard dose rifampicin): restored atazanavir bioavailability | Effect of TDF on clearance and bioavailability ([4]; co-medication tenofovir disoproxil fumarate): affected neither | BOV in F ([4]; estimate (95% CI)): 48.2 (40.7‐53.6) % CV | BOV in MTT ([4]; estimate (95% CI)): 59.4 (49.3‐73.6) % CV | Between occasion variability (BOV) in k a ([4]; estimate (95% CI)): 97.9 (80.8‐125) % CV | Between subject variability in clearance ([4]; estimate (95% CI)): 27.6 (19.7‐36.7) % CV | Between visit variability in clearance ([4]; estimate (95% CI)): 17.5 (14.4‐24.5) % CV | Change in F for ATV/r QD + RIF ([4]; estimate (95% CI)): −52.5 (−62.5 −41.4) % | Change in k a due to RIF ([4]; estimate (95% CI)): −67.3 (−76.2 −53.2) % | Mean absorption transit time, MTT ([4]; estimate (95% CI)): 0.499 (0.429‐0.574) h | Transit compartments, NN ([4]; fixed in the model): 10 Fixed n | Vd [4]: 77.5 L | bioavailability [4]: 100% | clearance [4, 6]: 52.2 mL/min | Fold‐change in CL for ATV/r QD + RIF ([4]; estimate (95% CI)): 3.05 (2.67‐3.45) ‐fold | Fold‐change in CL for ATV/r QD + RIF [4, 8]: 3 ‐fold | Effect of increasing rifampicin dose on clearance, bioavailability / pharmacokinetics [4]: no significant effect | Reduction of bioavailability by rifampicin ([4]; rifampicin added to standard ATV/r QD regimen): 53% | Volume of distribution (peripheral compartment) [4, 7]: 42.1(26.6‐79.0) L
